From the supplement of paper PMC10733146

Assays:
Assay in all cases: viability relative to DMSO control (fraction); higher = less drug effect (more viable cells)
Conditions in all cases: 48 h
[1] = tested on: primary AML patient cells (S091)
In short: (§1)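 Cells were incubated for 48 h at 37 °C and 5% CO2 in RPMI-1640 with penicillin/streptomycin, L-glutamine and human serum, at 4 × 10^4 cells per well in 384-well plates with compounds pre-plated at five concentrations, one well each. These were primary mononuclear tumour cells, fresh or cryopreserved, Ficoll-isolated from blood or bone marrow or obtained from processed lymph node. Viability values are CellTiter-Glo luminescence relative to the median of 16 inner DMSO wells.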

[2] = tested on: primary AML patient cells (S002)
In short: as §1

[3] = tested on: primary T-PLL patient cells (S008)
In short: as §1

[4] = tested on: primary AML patient cells (S025)
In short: as §1

[5] = tested on: primary FL patient cells (S022)
In short: as §1

[6] = tested on: primary AML patient cells (S037)
In short: as §1

[7] = tested on: primary AML patient cells (S019)
In short: as §1

[8] = tested on: primary AML patient cells (S089)
In short: as §1

[9] = tested on: primary AML patient cells (S021)
In short: as §1

[10] = tested on: primary ALL patient cells (S048)
In short: as §1

[11] = tested on: primary MCL patient cells (S068)
In short: as §1

[12] = tested on: primary AML patient cells (S011)
In short: as §1

[13] = tested on: primary AML patient cells (S081)
In short: as §1

[14] = tested on: primary AML patient cells (S055)
In short: as §1

Molecule `Nc1nc(Cl)nc2c1ncn2[C@@H]1O[C@H](CO)[C@@H](O)[C@@H]1F` [Clofarabine] has a viability ([1]; 0.024 µM) of 0.661, a viability ([1]; 0.12 µM) of 0.527 and a viability ([1]; 0.6 µM) of 0.482. It also gave a viability ([1]; 3 µM) of 0.459, a viability ([1]; 15 µM) of 0.425 and a viability ([2]; 0.024 µM) of 0.696. The viability ([2]; 0.12 µM) was 0.427, the viability ([2]; 0.6 µM) was 0.375 and the viability ([2]; 3 µM) was 0.387. The viability ([2]; 15 µM) was 0.329, the viability ([3]; 0.024 µM) was 0.989 and the viability ([3]; 0.12 µM) was 0.864. For the same molecule, the viability ([3]; 0.6 µM) was 0.64, the viability ([3]; 3 µM) was 0.562 and the viability ([3]; 15 µM) was 0.551. The viability ([4]; 0.024 µM) was 0.528, the viability ([4]; 0.12 µM) was 0.46 and the viability ([4]; 0.6 µM) was 0.478. For the same molecule, the viability ([4]; 3 µM) was 0.492, the viability ([4]; 15 µM) was 0.463 and the viability ([5]; 0.024 µM) was 0.817. It also gave a viability ([5]; 0.12 µM) of 0.643, a viability ([5]; 0.6 µM) of 0.457 and a viability ([5]; 3 µM) of 0.306. The viability ([5]; 15 µM) was 0.256, the viability ([6]; 0.024 µM) was 1.01 and the viability ([6]; 0.12 µM) was 0.834. The viability ([6]; 0.6 µM) was 0.656, the viability ([6]; 3 µM) was 0.651 and the viability ([6]; 15 µM) was 0.627. The viability ([7]; 0.024 µM) was 0.918, the viability ([7]; 0.12 µM) was 0.476 and the viability ([7]; 0.6 µM) was 0.392. For the same molecule, the viability ([7]; 3 µM) was 0.431, the viability ([7]; 15 µM) was 0.345 and the viability ([8]; 0.024 µM) was 0.851. The viability ([8]; 0.12 µM) was 0.737, the viability ([8]; 0.6 µM) was 0.506 and the viability ([8]; 3 µM) was 0.461. It also gave a viability ([8]; 15 µM) of 0.327, a viability ([9]; 0.024 µM) of 0.755 and a viability ([9]; 0.12 µM) of 0.425. It also gave a viability ([9]; 0.6 µM) of 0.286, a viability ([9]; 3 µM) of 0.21 and a viability ([9]; 15 µM) of 0.201. The viability ([10]; 0.024 µM) was 0.345, the viability ([10]; 0.12 µM) was 0.0686 and the viability ([10]; 0.6 µM) was 0.0335. The viability ([10]; 3 µM) was 0.0271, the viability ([10]; 15 µM) was 0.0269 and the viability ([11]; 0.024 µM) was 0.522. For the same molecule, the viability ([11]; 0.12 µM) was 0.301, the viability ([11]; 0.6 µM) was 0.203 and the viability ([11]; 3 µM) was 0.156. For the same molecule, the viability ([11]; 15 µM) was 0.128, the viability ([12]; 0.024 µM) was 0.762 and the viability ([12]; 0.12 µM) was 0.535. For the same molecule, the viability ([12]; 0.6 µM) was 0.299, the viability ([12]; 3 µM) was 0.17 and the viability ([12]; 15 µM) was 0.0898. The viability ([13]; 0.024 µM) was 1.08, the viability ([13]; 0.12 µM) was 1.07 and the viability ([13]; 0.6 µM) was 0.861. For the same molecule, the viability ([13]; 3 µM) was 0.684, the viability ([13]; 15 µM) was 0.415 and the viability ([14]; 0.024 µM) was 0.951. It also gave a viability ([14]; 0.12 µM) of 0.792, a viability ([14]; 0.6 µM) of 0.677 and a viability ([14]; 3 µM) of 0.507. The viability ([14]; 15 µM) was 0.446.

`Nc1nc(=S)c2[nH]cnc2[nH]1` [Thioguanin] was tested, and the viability ([1]; 0.024 µM) was 0.859, the viability ([1]; 0.12 µM) was 0.817 and the viability ([1]; 0.6 µM) was 0.919. The viability ([1]; 3 µM) was 0.6, the viability ([1]; 15 µM) was 0.254 and the viability ([2]; 0.024 µM) was 1.1. The viability ([2]; 0.12 µM) was 1.09, the viability ([2]; 0.6 µM) was 0.949 and the viability ([2]; 3 µM) was 0.66. For the same molecule, the viability ([2]; 15 µM) was 0.446, the viability ([3]; 0.024 µM) was 1.02 and the viability ([3]; 0.12 µM) was 0.986. For the same molecule, the viability ([3]; 0.6 µM) was 0.957, the viability ([3]; 3 µM) was 0.9 and the viability ([3]; 15 µM) was 0.629. It also gave a viability ([4]; 0.024 µM) of 0.945, a viability ([4]; 0.12 µM) of 0.751 and a viability ([4]; 0.6 µM) of 0.615. The viability ([4]; 3 µM) was 0.279, the viability ([4]; 15 µM) was 0.152 and the viability ([5]; 0.024 µM) was 0.991. For the same molecule, the viability ([5]; 0.12 µM) was 0.955, the viability ([5]; 0.6 µM) was 0.835 and the viability ([5]; 3 µM) was 0.622. It also gave a viability ([5]; 15 µM) of 0.483, a viability ([6]; 0.024 µM) of 1 and a viability ([6]; 0.12 µM) of 0.937. For the same molecule, the viability ([6]; 0.6 µM) was 0.701, the viability ([6]; 3 µM) was 0.481 and the viability ([6]; 15 µM) was 0.395. It also gave a viability ([7]; 0.024 µM) of 1.04, a viability ([7]; 0.12 µM) of 1.18 and a viability ([7]; 0.6 µM) of 0.65. For the same molecule, the viability ([7]; 3 µM) was 0.497, the viability ([7]; 15 µM) was 0.57 and the viability ([8]; 0.024 µM) was 0.765. The viability ([8]; 0.12 µM) was 0.607, the viability ([8]; 0.6 µM) was 0.648 and the viability ([8]; 3 µM) was 0.313. For the same molecule, the viability ([8]; 15 µM) was 0.0421, the viability ([9]; 0.024 µM) was 1.11 and the viability ([9]; 0.12 µM) was 0.984. The viability ([9]; 0.6 µM) was 0.918, the viability ([9]; 3 µM) was 0.672 and the viability ([9]; 15 µM) was 0.435. For the same molecule, the viability ([10]; 0.024 µM) was 0.949, the viability ([10]; 0.12 µM) was 0.906 and the viability ([10]; 0.6 µM) was 0.664. For the same molecule, the viability ([10]; 3 µM) was 0.37, the viability ([10]; 15 µM) was 0.17 and the viability ([11]; 0.024 µM) was 0.982. For the same molecule, the viability ([11]; 0.12 µM) was 0.892, the viability ([11]; 0.6 µM) was 0.83 and the viability ([11]; 3 µM) was 0.6. It also gave a viability ([11]; 15 µM) of 0.299, a viability ([12]; 0.024 µM) of 1.02 and a viability ([12]; 0.12 µM) of 0.977. For the same molecule, the viability ([12]; 0.6 µM) was 0.658, the viability ([12]; 3 µM) was 0.339 and the viability ([12]; 15 µM) was 0.239. The viability ([13]; 0.024 µM) was 1.09, the viability ([13]; 0.12 µM) was 0.899 and the viability ([13]; 0.6 µM) was 0.621. It also gave a viability ([13]; 3 µM) of 0.465, a viability ([13]; 15 µM) of 0.319 and a viability ([14]; 0.024 µM) of 0.964. For the same molecule, the viability ([14]; 0.12 µM) was 0.867, the viability ([14]; 0.6 µM) was 0.49 and the viability ([14]; 3 µM) was 0.19. It also gave a viability ([14]; 15 µM) of 0.114.
